{"source": "patent US10227344B2", "about": "“CK2 inhibitors, compositions and methods thereof” (Polaris Pharmaceuticals, Inc., priority 2016, dated 2019)", "assay_type_in_all_cases": "cell-based", "key": {"NAMALWA": {"test_system": "NAMALWA", "experiment": "Cancer cell panel, cell viability (resazurin): Burkitt's Lymphoma, NAMALWA", "conditions": "72 hours, labelled drug combined with Example 3", "experimental": "(§1) Cells were plated in 96-well plates and treated for 72 hours with a serially diluted CK2 inhibitor or anti-cancer drug or their combination. The suspension cell lines were treated right after plating, while the adherent cells were allowed to attach overnight prior to the start of the treatment.\n(§2) Cell viability was determined by adding resazurin to cell cultures and measuring fluorescence with a plate reader. Relative cell viability was calculated by dividing the cell viability signal from a test sample by that of a non-treated control. […] Bliss Independence and Highest Single Agent models were used to determine if there is synergy, additivity or antagonism between the CK2 inhibitor and an anti-cancer drug."}, "U87MG": {"test_system": "U87MG", "experiment": "Cancer cell panel, cell viability (resazurin): Glioblastoma, U87MG", "conditions": "72 hours, labelled drug combined with Example 3"}, "H2122": {"test_system": "H2122", "experiment": "Cancer cell panel, cell viability (resazurin): NSCLC, H2122", "conditions": "72 hours, labelled drug combined with Example 3"}, "RPMI8226": {"test_system": "RPMI8226", "experiment": "Cancer cell panel, cell viability (resazurin): multiple myeloma, RPMI8226", "conditions": "72 hours, labelled drug combined with Example 3"}, "LnCap": {"test_system": "LnCap", "experiment": "Cancer cell panel, cell viability (resazurin): Prostate, LnCap", "conditions": "72 hours, labelled drug combined with Example 3", "experimental": "as §1, §2"}, "Daudi": {"test_system": "Daudi", "experiment": "Cancer cell panel, cell viability (resazurin): Burkitt's Lymphoma, Daudi", "conditions": "72 hours, labelled drug combined with Example 3"}, "H1299": {"test_system": "H1299", "experiment": "Cancer cell panel, cell viability (resazurin): NSCLC, H1299", "conditions": "72 hours, labelled drug combined with Example 3"}, "DLD-1": {"test_system": "DLD-1", "experiment": "Cancer cell panel, cell viability (resazurin): Colon, DLD-1", "conditions": "DLD-1 (Colon), 72 hours; labelled drug combined with Example 3"}, "MOLT4": {"test_system": "MOLT4", "experiment": "Cancer cell panel, cell viability (resazurin): Leukemia, MOLT4", "conditions": "72 hours, labelled drug combined with Example 3"}, "H460": {"test_system": "H460", "experiment": "Cancer cell panel, cell viability (resazurin): NSCLC, H460", "conditions": "72 hours, labelled drug combined with Example 3"}, "ACHN": {"test_system": "ACHN", "experiment": "Cancer cell panel, cell viability (resazurin): Renal, ACHN", "conditions": "72 hours, labelled drug combined with Example 3"}, "BxPC3": {"test_system": "BxPC3", "experiment": "Cancer cell panel, cell viability (resazurin): Pancreatic, BxPC3", "conditions": "72 hours, labelled drug combined with Example 3", "experimental": "as §1, §2"}, "BT-20": {"test_system": "BT-20", "experiment": "Cancer cell panel, cell viability (resazurin): Breast, BT-20", "conditions": "BT-20 (Breast), 72 hours; labelled drug combined with Example 3", "experimental": "as §1, §2"}, "A549": {"test_system": "A549", "experiment": "Cancer cell panel, cell viability (resazurin): NSCLC, A549", "conditions": "72 hours, labelled drug combined with Example 3"}, "PC3": {"test_system": "PC3", "experiment": "Cancer cell panel, cell viability (resazurin): Prostate, PC3", "conditions": "72 hours, labelled drug combined with Example 3"}, "Ramos": {"test_system": "Ramos", "experiment": "Cancer cell panel, cell viability (resazurin): Burkitt's Lymphoma, Ramos", "conditions": "72 hours, labelled drug combined with Example 3", "experimental": "as §1, §2"}, "MDA-MB-453": {"test_system": "MDA-MB-453", "experiment": "Cancer cell panel, cell viability (resazurin): Breast, MDA-MB-453", "conditions": "MDA-MB-453 (Breast), 72 hours; labelled drug combined with Example 3"}, "786-O": {"test_system": "786-O", "experiment": "Cancer cell panel, cell viability (resazurin): Renal, 786-O", "conditions": "786-O (Renal), 72 hours; labelled drug combined with Example 3"}, "Caov-3": {"test_system": "Caov-3", "experiment": "Cancer cell panel, cell viability (resazurin): Ovarian, Caov-3", "conditions": "Caov-3 (Ovarian), 72 hours; labelled drug combined with Example 3"}, "Colo205": {"test_system": "Colo205", "experiment": "Cancer cell panel, cell viability (resazurin): Colon, Colo205", "conditions": "72 hours, labelled drug combined with Example 3", "experimental": "as §1, §2"}, "T47D": {"test_system": "T47D", "experiment": "Cancer cell panel, cell viability (resazurin): Breast, T47D", "conditions": "72 hours, labelled drug combined with Example 3", "experimental": "as §1, §2"}, "K562": {"test_system": "K562", "experiment": "Cancer cell panel, cell viability (resazurin): Leukemia, K562", "conditions": "72 hours, labelled drug combined with Example 3", "experimental": "as §1, §2"}, "BT-474": {"test_system": "BT-474", "experiment": "Cancer cell panel, cell viability (resazurin): Breast, BT-474", "conditions": "BT-474 (Breast), 72 hours; labelled drug combined with Example 3", "experimental": "as §1, §2"}}, "data": [{"smiles": "Nc1ccn([C@@H]2O[C@H](CO)[C@@H](O)C2(F)F)c(=O)n1", "note": "[Gemcitabine, gemcitabine]", "values": [{"measurement": "synergy, additivity or antagonism of the combination of Example 3 with the anti-cancer drug", "setting": "NAMALWA", "value": "+ + (Slight synergy relative to each agent alone (CI = 0.75-0.9 by Bliss Independence Model))"}, {"measurement": "synergy, additivity or antagonism of the combination of Example 3 with the anti-cancer drug", "setting": "U87MG", "value": "+ (Additive relative to each agent alone (CI = 0.9-1 by Bliss Independence Model and <0.9 by Highest Single Agent Model))"}, {"measurement": "synergy, additivity or antagonism of the combination of Example 3 with the anti-cancer drug", "setting": "H2122", "value": "+ + (Slight synergy relative to each agent alone (CI = 0.75-0.9 by Bliss Independence Model))"}, {"measurement": "synergy, additivity or antagonism of the combination of Example 3 with the anti-cancer drug", "setting": "RPMI8226", "value": "+ + (Slight synergy relative to each agent alone (CI = 0.75-0.9 by Bliss Independence Model))"}, {"measurement": "synergy, additivity or antagonism of the combination of Example 3 with the anti-cancer drug", "setting": "LnCap", "value": "+ (Additive relative to each agent alone (CI = 0.9-1 by Bliss Independence Model and <0.9 by Highest Single Agent Model))"}, {"measurement": "synergy, additivity or antagonism of the combination of Example 3 with the anti-cancer drug", "setting": "Daudi", "value": "+ + (Slight synergy relative to each agent alone (CI = 0.75-0.9 by Bliss Independence Model))"}, {"measurement": "synergy, additivity or antagonism of the combination of Example 3 with the anti-cancer drug", "setting": "H1299", "value": "+ (Additive relative to each agent alone (CI = 0.9-1 by Bliss Independence Model and <0.9 by Highest Single Agent Model))"}, {"measurement": "synergy, additivity or antagonism of the combination of Example 3 with the anti-cancer drug", "setting": "DLD-1", "value": "+ (Additive relative to each agent alone (CI = 0.9-1 by Bliss Independence Model and <0.9 by Highest Single Agent Model))"}, {"measurement": "synergy, additivity or antagonism of the combination of Example 3 with the anti-cancer drug", "setting": "MOLT4", "value": "+ + + (Synergy relative to each agent alone (CI = 0.4-0.74 by Bliss Independence Model))"}, {"measurement": "synergy, additivity or antagonism of the combination of Example 3 with the anti-cancer drug", "setting": "H460", "value": "+ + (Slight synergy relative to each agent alone (CI = 0.75-0.9 by Bliss Independence Model))"}, {"measurement": "synergy, additivity or antagonism of the combination of Example 3 with the anti-cancer drug", "setting": "ACHN", "value": "+ (Additive relative to each agent alone (CI = 0.9-1 by Bliss Independence Model and <0.9 by Highest Single Agent Model))"}, {"measurement": "synergy, additivity or antagonism of the combination of Example 3 with the anti-cancer drug", "setting": "BxPC3", "value": "+ + + (Synergy relative to each agent alone (CI = 0.4-0.74 by Bliss Independence Model))"}, {"measurement": "synergy, additivity or antagonism of the combination of Example 3 with the anti-cancer drug", "setting": "BT-20", "value": "+ (Additive relative to each agent alone (CI = 0.9-1 by Bliss Independence Model and <0.9 by Highest Single Agent Model))"}, {"measurement": "synergy, additivity or antagonism of the combination of Example 3 with the anti-cancer drug", "setting": "A549", "value": "+ + + + (Strong synergy relative to each agent alone (CI < 0.4 by Bliss Independence Model))"}, {"measurement": "synergy, additivity or antagonism of the combination of Example 3 with the anti-cancer drug", "setting": "PC3", "value": "+ (Additive relative to each agent alone (CI = 0.9-1 by Bliss Independence Model and <0.9 by Highest Single Agent Model))"}, {"measurement": "synergy, additivity or antagonism of the combination of Example 3 with the anti-cancer drug", "setting": "Ramos", "value": "+ + (Slight synergy relative to each agent alone (CI = 0.75-0.9 by Bliss Independence Model))"}, {"measurement": "synergy, additivity or antagonism of the combination of Example 3 with the anti-cancer drug", "setting": "MDA-MB-453", "value": "+ + (Slight synergy relative to each agent alone (CI = 0.75-0.9 by Bliss Independence Model))"}, {"measurement": "synergy, additivity or antagonism of the combination of Example 3 with the anti-cancer drug", "setting": "786-O", "value": "+ + + (Synergy relative to each agent alone (CI = 0.4-0.74 by Bliss Independence Model))"}, {"measurement": "synergy, additivity or antagonism of the combination of Example 3 with the anti-cancer drug", "setting": "Caov-3", "value": "+ (Additive relative to each agent alone (CI = 0.9-1 by Bliss Independence Model and <0.9 by Highest Single Agent Model))"}, {"measurement": "synergy, additivity or antagonism of the combination of Example 3 with the anti-cancer drug", "setting": "Colo205", "value": "+ (Additive relative to each agent alone (CI = 0.9-1 by Bliss Independence Model and <0.9 by Highest Single Agent Model))"}, {"measurement": "synergy, additivity or antagonism of the combination of Example 3 with the anti-cancer drug", "setting": "T47D", "value": "+ (Additive relative to each agent alone (CI = 0.9-1 by Bliss Independence Model and <0.9 by Highest Single Agent Model))"}, {"measurement": "synergy, additivity or antagonism of the combination of Example 3 with the anti-cancer drug", "setting": "K562", "value": "+ (Additive relative to each agent alone (CI = 0.9-1 by Bliss Independence Model and <0.9 by Highest Single Agent Model))"}, {"measurement": "synergy, additivity or antagonism of the combination of Example 3 with the anti-cancer drug", "setting": "BT-474", "value": "+ (Additive relative to each agent alone (CI = 0.9-1 by Bliss Independence Model and <0.9 by Highest Single Agent Model))"}]}]}
